A short description of data set [1]: 10-day repeat-dose toxicity and toxicokinetics study in dogs. The conditions noted are these: for AUC(0-t) / Cmax: plasma, po, 200 mg/kg/day, after 10 days of dosing; for AUC(0-t): read-out: C2E2 AUC0-24; for Cmax: read-out: Mean C2E2 Cmax. The data set is classed as in vivo, Beagle dog. As to the method:
An exploratory study was conducted to evaluate the toxicity and to determine the toxicokinetics of the test article, C2E2, when administered to dogs via 10 daily oral gavage doses. Groups of 2 Beagle dogs/sex were administered C2E2 via oral gavage at dose levels of 0, 60, 200, 400, or 600 mg/kg. The vehicle was reverse osmosis water and the dose volume was 8 mL/kg. Assessment of toxicity was based on mortality, clinical observations, body weight, food consumption, clinical pathology, gross pathology, organ weights, histopathology of selected tissues, and plasma essential trace elements analysis. Blood samples were collected on Days 1 and 10 for toxicokinetic evaluations of C2E2, C2E1, DTPA and C2E3. C2E3 is believed to be an impurity in the C2E2 lot used.

Data set [2] is described as follows: Protonation constants by potentiometric titration. The data set is classed as physicochemical. The conditions noted are these: 5 mM ligand in 0.15 M KCl. As to the method:
The protonation constants for C2E2 were determined by preparing a 5 mM solution of free ligand in 0.15 M KCl. The constants were calculated from three replicates, with each experiment consisting of a titration with acid, followed by a titration with base. After each addition of titrant, a 30 second equilibration time passed before pH measurement with a Seven Easy pH meter and (Ag/AgCl reference) glass electrode (Metler Tolledo). At the end of the titrations, the presence of C2E2 was confirmed by HPLC-CAD. Evaluation of the titration curve for C2E2 (FIG. 31) identified 6 pKa values that correspond with the three tertiary amines and three carboxylic acids. The values were determined by refinement using […] software. The pKa values determined for C2E2 are consistent with DTPA analogues previously investigated for use as MRI contrast agents with two carboxylic acids are functionalized such as DTPA-BMA and DTPA-BBA (Rizkalla, E. N., et al., Inorganic Chemistry, 32, 582-586, (1993) and Geraldes C. F., et al., Journal of the Chemical Society-Dalton Transactions, 327-335 (1995)).

Read-outs that look alike come from different tables or passages of the source.

Broadly, the NOAEL is the highest tested level that showed no adverse finding. By Cmax is commonly meant the peak of the concentration-time curve. Take `CCOC(=O)CN(CCN(CCN(CC(=O)O)CC(=O)OCC)CC(=O)O)CC(=O)O` [C2E2, 6,9-bis(carboxymethyl)-3-(2-ethoxy-2-oxoethyl)-11-oxo-12-oxa-3,6,9-triazatetradecan-1-oic acid]: the “Dose proportionality of mean Cmax and AUC0-24” value in data set [1] (60 to 600 mg/kg/day) was “not consistently dose proportional”. Also, the “Maximum-tolerated dose (statement)” value in data set [1] (400 and 600 mg/kg/day, early sacrifices) is given as “exceeded the maximum-tolerated dose”. The NOAEL at 10 days in data set [1] (both sexes, Beagle, dog, in vivo, dogs, oral gavage, 10 days, read-out: No observed adverse effect level (NOAEL)) was found to be 200 mg/kg/day. For the same compound, the “Accumulation after multiple dosing” value in data set [1] (dogs, 10 daily doses) was “No accumulation”. The “Sex differences in C2E2 mean Cmax and AUC0-24” value in data set [1] (dogs, 60-600 mg/kg/day) is on record as “less than 2 fold”. In addition, in data set [1] (dogs, 10 days), the “Dose at which liver and kidney were target organs of toxicity” value was at least 400 mg/kg/day; the “Dose with clinical chemistry changes consistent with hepatotoxicity” value is at least 400 mg/kg/day; the “Dose with test article related clinical observations (vomitus/emesis, fecal abnormalities)” value was at least 200 mg/kg/day. Besides, in data set [1] (female, Beagle, dog, females), the AUC(0-t) is 184 µg·h/mL and the Cmax was determined as 72 µg/mL. Besides, the “Dose with dose-dependent body weight loss” value in data set [1] (females) is on record as at least 400 mg/kg/day. Further, in data set [1] (male, Beagle, dog, males), the AUC(0-t) amounted to 151 µg·h/mL and the Cmax turned out to be 59.5 µg/mL. Besides, the “Dose with dose-dependent body weight loss” value in data set [1] (males) is listed as at least 200 mg/kg/day. In addition, in data set [1] (males, terminal sacrifice), the “Dose with hepatocyte degeneration/necrosis and mixed cell inflammation” value is on record as at least 200 mg/kg/day. Also, in data set [1] (one male 600 mg/kg/day, one male 400 mg/kg/day), the “Mortality / early sacrifice” value is given as “Two animals were sacrificed early due to moribund condition”. The “Essential trace elements in plasma (Cr, Co, Cu, Fe, Mg, Mn, Mo, Se, Zn)” value in data set [1] (repeated doses up to 600 mg/kg/day for 10 days) is “No test article-related depletion of essential trace elements in plasma”. For the same compound, in data set [2], the PKa2 stood at 4.68 ± 0.02, the pKa1 was 9.40, the pKa3 is reported as 3.52 ± 0.03 and the pKa4 is 1.87 ± 0.05. In data set [2], the pKa5 is 1.76 and the pKa6 stood at 1.45.

The record behind these values is patent US9546129B2, “DTPA prodrugs, compositions thereof, and methods of using the same” (priority 2012, dated 2017).
